Laboratory results published in ChEMBL document CHEMBL4680162, “Synthesis and pharmacological evaluation of chlorin derivatives for photodynamic therapy of cholangiocarcinoma” (Eur J Med Chem, 2020).
Calls of active or inactive are those of the source. The rule behind the calls is not given here.

Key:
[1] = Absorption property of compound in poly-oxyethylene castor oil and PBS assessed as Q band maximum absorption wavelength by UV-visible spectrophotometric method; assay type: physicochemical; conditions: buffer
[2] = Absorption property of the compound in DMSO assessed as Q band maximum absorption wavelength by UV-visible spectrophotometric method; assay type: physicochemical
[3] = Absorption property of compound in poly-oxyethylene castor oil and PBS assessed as Q band log absorption coefficient by UV-visible spectrophotometric method; assay type: physicochemical; conditions: buffer
[4] = Absorption property of the compound in DMF assessed as Q band log absorption coefficient by UV-visible spectrophotometric method; assay type: physicochemical
[5] = Emission property of compound in poly-oxyethylene castor oil and PBS assessed as Q band emission wavelength by […]; assay type: physicochemical; conditions: buffer
[6] = Emission property of compound in DMSO assessed as Q band emission wavelength by […]; assay type: physicochemical
[7] = Induction of singlet oxygen generation in DMSO assessed as bleaching rate at 10 uM under 650 nanometer light irradiation; assay type: functional
[8] = Drug uptake in human QBC939 cells at 4 uM by fluorescence spectrophotometer analysis; assay type: ADME, cell-based; conditions: qbc939, 4 µM
[9] = Drug localization in mitochondria of human QBC939 cells at 4 uM incubated for 4 hrs in dark by mito-tracker green based confocal microscopic method; assay type: ADME; conditions: qbc939, 4 h
[10] = Drug localization in lysosome of human QBC939 cells at 4 uM incubated for 4 hrs in dark by lyso-tracker blue based confocal microscopic method; assay type: ADME, subcellular; conditions: qbc939, 4 h
[11] = Drug localization in nucleus of human QBC939 cells at 4 uM incubated for 4 hrs in dark by Hoechst 33342 based confocal microscopic method; assay type: ADME, subcellular; conditions: qbc939, 4 h
[12] = Dark toxicity in human QBC939 cells assessed as reduction in cell viability incubated under dark for 24 hrs measured after 24 hrs by MTT assay; assay type: cell-based; conditions: read-out: TC50
[13] = Induction of apoptosis in human QBC939 cells assessed as late apoptotic cells at 2 uM by annexin V-FITC and propidium iodide staining based flow cytometric analysis; assay type: functional
[14] = Induction of apoptosis in human QBC939 cells assessed as viable cells at 2 uM by annexin V-FITC and propidium iodide staining based flow cytometric analysis (reference value: 99.99 %); assay type: functional; conditions: read-out: Activity
[15] = Induction of apoptosis in human QBC939 cells assessed as necrotic cells at 2 uM in presence of 2J/cm2 light irradiation measured after 24 hrs by annexin V-FITC and propidium iodide staining based flow cytometric analysis (reference value: 0.02 %); assay type: functional
[16] = Induction of apoptosis in human QBC939 cells assessed as viable cells at 2 uM in presence of 2J/cm2 light irradiation measured after 24 hrs by annexin V-FITC and propidium iodide staining based flow cytometric analysis (reference value: 99.6 %); assay type: functional; conditions: QBC939, light or radiation study, read-out: Activity
[17] = Induction of apoptosis in human QBC939 cells assessed as early apoptotic cells at 2 uM in presence of 2J/cm2 light irradiation measured after 2 hrs by annexin V-FITC and propidium iodide staining based flow cytometric analysis (reference value: 0.01 %); assay type: functional
[18] = Induction of apoptosis in human QBC939 cells assessed as viable cells at 2 uM in presence of 2J/cm2 light irradiation measured after 2 hrs by annexin V-FITC and propidium iodide staining based flow cytometric analysis (reference value: 99.6 %); assay type: functional; conditions: QBC939, light or radiation study, read-out: Activity
[19] = Phototoxicity against human QBC939 cells assessed as reduction in cell viability irradiated with 2 J/cm2 of 650 nanometer laser light preincubated for 24 hrs in dark and measured after 24 hrs by MTT assay; assay type: functional, cell-based; conditions: QBC939, light or radiation study
[20] = Phototoxicity against human QBC939 cells assessed as reduction in cell viability irradiated with 4 J/cm2 of 650 nanometer laser light preincubated for 24 hrs in dark and measured after 24 hrs by MTT assay; assay type: functional, cell-based; conditions: QBC939, light or radiation study
[21] = Drug uptake in mouse assessed as drug level in plasma at 1 mg/kg, iv measured upto 24 hrs by fluorometric method; assay type: ADME, organism-based; conditions: in vivo
[22] = Drug uptake in nude mouse xenografted with QBC939 cells assessed as drug level in tumor tissue at 1 mg/kg, iv measured after 8 hrs by fluorescence imaging assay; assay type: ADME, organism-based, Neoplasm; conditions: in vivo
[23] = Drug uptake in nude mouse xenografted with QBC939 cells assessed as drug level in tumor tissue at 1 mg/kg, iv measured after 24 hrs by fluorescence imaging assay; assay type: ADME, organism-based, Neoplasm; conditions: in vivo
[24] = Phototoxicity in ICR mouse assessed as pathological changes 1 mg/kg, iv in presence of 10 mW/cm2 light irradiation for 10 mins at 1 day after drug challenge and measured after 1 day of light irradiation by H and E staining based microscopic analysis; assay type: organism-based; conditions: in vivo, 48 h, time 2 day
[25] = Photodynamic antitumor activity against human QBC939 cells xenografted in BALB/c nude mouse assessed as tumor weight at 1 mg/kg, iv followed by laser light irradiation at 120 J/cm2 measured after 13 days; assay type: functional; conditions: time 13 day
QBC939 [26] = test: Photodynamic antitumor activity against human QBC939 cells xenografted in BALB/c nude mouse assessed as increase in tumor tissue damage at 1 mg/kg, iv followed by laser light irradiation at 120 J/cm2 measured after 1 day of light irradiation by H and E staining based histological analysis; assay type: functional, organism-based
QBC939 [27] = test: Photodynamic antitumor activity against human QBC939 cells xenografted in BALB/c nude mouse assessed as morphological change in tumor tissue at 1 mg/kg, iv followed by laser light irradiation at 120 J/cm2 measured after 1 day of light irradiation by H and E staining based histological analysis; assay type: functional, organism-based
[28] = Phototoxicity in BALB/c nude mouse xenografted with QBC939 cells assessed as change in liver at 1 mg/kg, iv followed by laser light irradiation at 120 J/cm2 measured after 1 day of light irradiation by H and E staining based histological analysis; assay type: organism-based; conditions: in vivo, 24 h
[29] = Phototoxicity in BALB/c nude mouse xenografted with QBC939 cells assessed as change in spleen at 1 mg/kg, iv followed by laser light irradiation at 120 J/cm2 measured after 1 day of light irradiation by H and E staining based histological analysis; assay type: organism-based; conditions: in vivo, 24 h
[30] = Phototoxicity in BALB/c nude mouse xenografted with QBC939 cells assessed as change in lung at 1 mg/kg, iv followed by laser light irradiation at 120 J/cm2 measured after 1 day of light irradiation by H and E staining based histological analysis; assay type: organism-based; conditions: in vivo, 24 h
[31] = Phototoxicity in BALB/c nude mouse xenografted with QBC939 cells assessed as change in kidney at 1 mg/kg, iv followed by laser light irradiation at 120 J/cm2 measured after 1 day of light irradiation by H and E staining based histological analysis; assay type: organism-based; conditions: in vivo, 24 h
QBC939 [32] = test: Photodynamic antitumor activity against human QBC939 cells xenografted in BALB/c nude mouse assessed as decrease in tumor weight at 1 mg/kg, iv under dark condition measured after 13 days; assay type: functional, organism-based; conditions: time 13.0 day
QBC939 [33] = test: Photodynamic antitumour activity against human QBC939 cells xenografted in BABL/c nude mouse assessed as increase in apoptotic cells at 1 mg/kg, iv measured after 1 day of light irradiation by TUNEL assay; assay type: functional, organism-based

COC(=O)C1(C(=O)O)C2c3nc(c(-c4ccccc4)c4ccc([nH]4)c(-c4ccccc4)c4nc(c(-c5ccccc5)c5ccc([nH]5)c3-c3ccccc3)C=C4)C21 (stereo not drawn)
Activity [1]: 655 nm
Activity [2]: 650 nm
Activity [3]: 4.2
Activity [4]: 3.02
Activity [5]: 654 nm
Activity [6]: 652 nm
Activity [7]: Active
Drug uptake [8]: Active
Drug uptake [9]: Active
Drug uptake [10]: Active
Drug uptake [11]: Not Active
CC50 at 48 h [12]: > 8000 nM
Activity [13]: 2.06%
viability at 2 µM [14]: 94.3%
Activity [15]: 7.79%
viability at 2 µM [16]: 2.1%
Activity [17]: 23.2%
viability at 2 µM [18]: 51.3%
IC50 [19]: 1360 nM
IC50 [20]: 780 nM
Drug uptake [21]: Active
Drug uptake [22]: Active
Drug uptake [23]: Active
Activity [24]: Non-Toxic
Activity [25]: 10%
Activity (QBC939 [26]): Active
Activity (QBC939 [27]): Active
Activity [28]: Non-Toxic
Activity [29]: Non-Toxic
Activity [30]: Non-Toxic
Activity [31]: Non-Toxic
Activity (QBC939 [32]): inactive
Activity (QBC939 [33]): Active
